Structures can show the parent of a compound that is named as a salt. Where two headings read alike, the source gives them in different places.
Experiments:
wild-type HIV-1 protease = wild-type HIV-1 protease (Human immunodeficiency virus type 1 group M subtype B, UniProt P04585); assay: Assay for inhibition of microbial expressed HIV protease; format: biochemical
Summary of the method: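 Inhibition taken from HPLC (C18) product peak areas after phosphoric acid quench. Reaction: 440 micromolar Val-Ser-Gln-Asn-(betanapthyl)Ala-Pro-Ile-Val peptide, 5 pM E. coli-made protease, 1 h at 30° C, following 30 min room-temperature inhibitor preincubation in pH 5.5 acetate/NaCl/BSA buffer.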

[1] = system: acute HIV infection of T-lymphoid cells; assay: Assay for inhibition of HIV replication (spread assay); format: cell-based, HIV-1; details: Human immunodeficiency virus 1, T-lymphoid
Protocol: • Assay for Inhibition of HIV Replication
Assays for the inhibition of acute HIV infection of T-lymphoid cells were conducted in accordance with Vacca, J. P. et al., Proc. Natl. Acad. Sci. USA 1994, 91: 4096.

[2] = wild-type HIV-1 protease expressed in E. coli, peptide substrate, pH 5.5, read-out: Enzyme Inhibition - IC50

## COC(=O)N[C@H](C(=O)N[C@H](CCC[C@@H](CO)N(C)S(=O)(=O)c1ccc(N)cc1)C1CC1)C(c1ccccc1)c1ccccc1 [Example I9, N-{(1R,5S)-5-[[(4-aminophenyl)sulfonyl](methyl)amino]-1-cyclopropyl-6-hydroxyhexyl}-Nα-(methoxycarbonyl)-β-phenyl-L-phenylalaninamide]
wild-type HIV-1 protease; [2]
  IC50: 3.2 nM
[1]; read-out: Spread - IC95
  IC95: 323 nM

## COC(=O)N[C@@H](Cc1ccccc1Cl)C(=O)N[C@H](CCC[C@@H](CO)N(C(C)C)S(=O)(=O)c1ccc(CO)cc1)C1CC1 [Example I2, 2-chloro-N-{(1R,5S)-1-cyclopropyl-6-hydroxy-5-[{[4-(hydroxymethyl)phenyl]sulfonyl}(isopropyl)amino]hexyl}-Nα-(methoxycarbonyl)-L-phenylalaninamide]
wild-type HIV-1 protease; [2]
  IC50: 2.25 nM
[1]; read-out: Spread - IC95
  IC95: 422 nM

## CCCN([C@H](CO)CCC[C@H](CC)NC(=O)[C@@H](NC(=O)OC)C(c1ccccc1)c1ccccc1)S(=O)(=O)c1ccc(CO)cc1 [Example J34, N-{(1S,5S)-1-ethyl-6-hydroxy-5-[{[4-(hydroxymethyl)phenyl]sulfonyl}(propyl)amino]hexyl}-Nα-(methoxycarbonyl)-β-phenyl-L-phenylalaninamide]
wild-type HIV-1 protease; [2]
  IC50: 0.041 nM
[1]; read-out: Spread - IC95
  IC95: 20 nM

## COC(=O)N[C@H](C(=O)NC1(CCCC(CO)N(CCC(C)C)S(=O)(=O)c2ccc(N)cc2)CCC1)C(c1ccccc1)c1ccccc1 (stereo partly drawn) [Example L3, N-(1-{4-[[(4-aminophenyl)sulfonyl](3-methylbutyl)amino]-5-hydroxypentyl}cyclobutyl)-Nα-(methoxycarbonyl)-β-phenyl-L-phenylalaninamide]
wild-type HIV-1 protease; [2]
  IC50: 0.234 nM
[1]; read-out: Spread - IC95
  IC95: 471 nM

## CCCN([C@H](CO)CCC[C@H](CC)NC(=O)[C@H](Cc1cccc2ccccc12)NC(=O)OC)S(=O)(=O)c1ccc(CO)cc1 [Example J41, methyl [(1S)-2-({(1S,5S)-1-ethyl-6-hydroxy-5-[{[4-(hydroxymethyl)phenyl]sulfonyl}(propyl)amino]hexyl}amino)-1-(1-naphthylmethyl)-2-oxoethyl]carbamate]
wild-type HIV-1 protease; [2]
  IC50: 0.564 nM
[1]; read-out: Spread - IC95
  IC95: 54 nM

## CCCN([C@H](CO)CCC[C@H](C)NC(=O)[C@@H](NC(=O)OC)C(c1cccc(F)c1)c1cccc(F)c1)S(=O)(=O)c1ccc(N)cc1 [Example F17, N-{(1S,5S)-5-[[(4-aminophenyl)sulfonyl](propyl)amino]-6-hydroxy-1-methylhexyl}-3-fluoro-β-(3-fluorophenyl)-Nα-(methoxycarbonyl)-L-phenylalaninamide]
wild-type HIV-1 protease; [2]
  IC50: 0.01 nM
[1]; read-out: Spread - IC95
  IC95: 18 nM

## CCCN([C@H](CO)CCC[C@H](CC)NC(=O)[C@H](Cc1ccccc1Br)NC(=O)OC)S(=O)(=O)c1ccc(N)cc1 [Example F7, N-{(1S,5S)-5-[[(4-aminophenyl)sulfonyl](propyl)amino]-1-ethyl-6-hydroxyhexyl}-2-bromo-Nα-(methoxycarbonyl)-L-phenylalaninamide]
wild-type HIV-1 protease; [2]
  IC50: 0.862 nM
[1]; read-out: Spread - IC95
  IC95: 251 nM

## COC(=O)N[C@H](C(=O)N[C@@H](C)CCC[C@@H](CO)N(C1CCC1)S(=O)(=O)c1ccc(CO)cc1)C(c1ccccc1)c1ccccc1 [Example G17, N-[(1S,5S)-5-(cyclobutyl{[4-(hydroxymethyl)phenyl]sulfonyl}amino)-6-hydroxy-1-methylhexyl]-Nα-(methoxycarbonyl)-β-phenyl-L-phenylalaninamide]
wild-type HIV-1 protease; [2]
  IC50: 0.077 nM
[1]; read-out: Spread - IC95
  IC95: 137 nM

## COC(=O)N[C@H](C(=O)N[C@H](CCC[C@@H](CO)N(CCC(C)C)S(=O)(=O)c1ccc(N)cc1)C1CC1)C(c1ccccc1)c1ccccc1 [Example E1]
wild-type HIV-1 protease
  IC50: 0.03 nM
[1]; read-out: Spread - IC95
  IC95: 11 nM

## CC(C)N([C@H](CO)CCCC(C)(C)NC(=O)[C@@H](N)C(c1ccccc1)c1ccccc1)S(=O)(=O)c1ccc(N)cc1 [Example L2, N-{(5S)-5-[[(4-aminophenyl)sulfonyl](isopropyl)amino]-6-hydroxy-1,1-dimethylhexyl}-β-phenyl-L-phenylalaninamide]
wild-type HIV-1 protease; [2]
  IC50: 0.018 nM
[1]; read-out: Spread - IC95
  IC95: 23 nM

## COC(=O)N[C@H](C(=O)N[C@@H](C)CCC[C@@H](CO)N(C)S(=O)(=O)c1ccc(CO)cc1)C(c1ccccc1)c1ccccc1 [Example G6, N-{(1S,5S)-6-hydroxy-5-[{[4-(hydroxymethyl)phenyl]sulfonyl}(methyl)amino]-1-methylhexyl}-Nα-(methoxycarbonyl)-β-phenyl-L-phenylalaninamide]
wild-type HIV-1 protease; [2]
  IC50: 0.376 nM
[1]; read-out: Spread - IC95
  IC95: 161 nM

## COC(=O)N[C@H](C(=O)N[C@H](CCC[C@@H](CO)N(C(C)C)S(=O)(=O)c1ccc(CO)cc1)C(F)(F)F)C(c1ccccc1)c1ccccc1 [Example J40, N-[(1R,5S)-6-hydroxy-5-[{[4-(hydroxymethyl)phenyl]sulfonyl}(isopropyl)amino]-1-(trifluoromethyl)hexyl]-Nα-(methoxycarbonyl)-β-phenyl-L-phenylalaninamide]
wild-type HIV-1 protease; [2]
  IC50: 0.015 nM
[1]; read-out: Spread - IC95
  IC95: 34 nM

## COC(=O)N[C@H](C(=O)N[C@H](CCC[C@@H](CO)N(CC(C)C)S(=O)(=O)c1ccc(CO)cc1)C1CC1)C(c1ccccc1)c1ccccc1 [Example J22]
wild-type HIV-1 protease; [2]
  IC50: 0.032 nM
[1]; read-out: Spread - IC95
  IC95: 15 nM

## COC(=O)N[C@@H](Cc1ccccc1Cl)C(=O)N[C@@H](C)CCC[C@@H](CN)N(CCC(C)C)S(=O)(=O)c1ccc(N)cc1 [Example D4, N-{(1S,5S)-6-amino-5-[[(4-aminophenyl)sulfonyl](3-methylbutyl)amino]-1-methylhexyl}-2-chloro-Nα-(methoxycarbonyl)-L-phenylalaninamide]
wild-type HIV-1 protease; [2]
  IC50: > 3 nM
[1]; read-out: Spread - IC95
  IC95: 270 nM

## CCCN([C@H](CO)CCC[C@@H](NC(=O)[C@@H](NC(=O)OC)C(c1ccccc1)c1ccccc1)C1CC1)S(=O)(=O)c1ccc(CO)cc1 [Example I4, N-{(1R,5S)-1-cyclopropyl-6-hydroxy-5-[{[4-(hydroxymethyl)phenyl]sulfonyl}(propyl)amino]hexyl}-Nα-(methoxycarbonyl)-β-phenyl-L-phenylalaninamide]
wild-type HIV-1 protease; [2]
  IC50: 0.058 nM
[1]; read-out: Spread - IC95
  IC95: 29 nM

## CC[C@@H](CCC[C@@H](CO)N(C(C)C)S(=O)(=O)c1ccc(CO)cc1)NC(=O)[C@@H](NC)C(c1ccccc1)c1ccccc1 [Example J35, N-{(1S,5S)-1-ethyl-6-hydroxy-5-[{[4-(hydroxymethyl)phenyl]sulfonyl}(isopropyl)amino]hexyl}-Nα-methyl-β-phenyl-L-phenylalaninamide hydrochloride]
wild-type HIV-1 protease
  IC50: 0.569 nM
[1]; read-out: Spread - IC95
  IC95: 25 nM

## CCCN([C@H](CO)CCC[C@H](C)NC(=O)[C@@H](NC(=O)OC)C(c1ccccc1)c1ccccc1)S(=O)(=O)c1ccc(N)cc1 [Example F2, N-{(1S,5S)-5-[[(4-aminophenyl)sulfonyl](propyl)amino]-6-hydroxy-1-methylhexyl}-Nα-(methoxycarbonyl)-β-phenyl-L-phenylalaninamide]
wild-type HIV-1 protease; [2]
  IC50: 0.028 nM
[1]; read-out: Spread - IC95 (nM)
  IC95: 23 nM

## C=C[C@@H](CCC[C@@H](CO)N(CCC(C)C)S(=O)(=O)c1ccc(CO)cc1)NC(=O)[C@@H](NC(=O)OC)C(c1ccccc1)c1ccccc1 [Example J10, N-{(1R,5S)-6-hydroxy-5-[{[4-(hydroxymethyl)phenyl]sulfonyl}(3-methylbutyl)amino]-1-vinylhexyl}-Nα-(methoxycarbonyl)-β-phenyl-L-phenylalaninamide]
wild-type HIV-1 protease; [2]
  IC50: 0.005 nM
[1]; read-out: Spread - IC95
  IC95: 4 nM

— US20100093811A1 (priority 2007, published 2010)
